Values after ≈ are worked out from the molar mass of the structure shown. One block for each compound: values may come before it.
Columns and labels:
[1] = Intrinsic solubility of the compound; format: physicochemical
[2] = Ratio of drug level in Sprague-Dawley rat brain to plasma; format: ADME, cell-free; details: brain and plasma, read-out: BPR
[3] = Permeability of the compound by PAMPA; format: ADME; details: read-out: permeability
[4] = Solubility of the compound in DMSO; format: physicochemical
[5] = Solubility of the compound in FaSSIF at pH 6; format: physicochemical
[6] = Solubility of the compound in FeSSIF at pH 5.2; format: physicochemical
[7] = Solubility of the compound in acetate buffer at pH 4.5; format: physicochemical
[8] = Solubility of the compound in 0.1N HCl; format: physicochemical
Rattus norvegicus [9] = assay: Cmax in Sprague-Dawley rat at 10 mg/kg, po; format: ADME, organism-based; set-up: dose 10 mg/kg, route oral; details: in vivo
Rattus norvegicus [10] = assay: AUC (0 to 24 hrs) in Sprague-Dawley rat at 10 mg/kg, po; format: ADME, organism-based; set-up: time < 24 hr, dose 10 mg/kg, route oral; details: in vivo
Rattus norvegicus [11] = assay: Tmax in Sprague-Dawley rat at 10 mg/kg, po; format: ADME, organism-based; details: in vivo
[12] = Oral bioavailability in Sprague-Dawley rat at 10 mg/kg; format: ADME, organism-based; details: in vivo
[13] = Cmax in Sprague-Dawley rat at 30 mg/kg, po; format: ADME, organism-based; set-up: dose 30 mg/kg, route oral; details: in vivo
[14] = AUC (0 to 24 hrs) in Sprague-Dawley rat at 30 mg/kg, po; format: ADME, organism-based; set-up: time < 24 hr, dose 30 mg/kg, route oral; details: in vivo
[15] = Tmax in Sprague-Dawley rat at 30 mg/kg, po; format: ADME, organism-based; details: in vivo
[16] = Oral bioavailability in Sprague-Dawley rat at 30 mg/kg; format: ADME, organism-based; details: in vivo
[17] = Cmax in Sprague-Dawley rat at 100 mg/kg, po; format: ADME, organism-based; set-up: dose 100 mg/kg, route oral; details: in vivo
[18] = AUC (0 to 24 hrs) in Sprague-Dawley rat at 100 mg/kg, po; format: ADME, organism-based; set-up: dose 100 mg/kg, time < 24 hr, route oral; details: in vivo
[19] = Tmax in Sprague-Dawley rat at 100 mg/kg, po; format: ADME, organism-based; details: in vivo
[20] = Cmax in Dunkin-Hartley guinea pig at 10 mg/kg, po; format: ADME, organism-based, Cavia porcellus; set-up: dose 10 mg/kg, route oral; details: in vivo
[21] = AUC (0 to 24 hrs) in Dunkin-Hartley guinea pig at 10 mg/kg, po; format: ADME, organism-based, Cavia porcellus; set-up: time < 24 hr, dose 10 mg/kg, route oral; details: in vivo
[22] = Tmax in Dunkin-Hartley guinea pig at 10 mg/kg, po; format: ADME, organism-based, Cavia porcellus; details: in vivo
[23] = Cmax in Dunkin-Hartley guinea pig at 30 mg/kg, po; format: ADME, organism-based, Cavia porcellus; set-up: dose 30 mg/kg, route oral; details: in vivo
[24] = AUC (0 to 24 hrs) in Dunkin-Hartley guinea pig at 30 mg/kg, po; format: ADME, organism-based, Cavia porcellus; set-up: dose 30 mg/kg, time < 24 hr, route oral; details: in vivo
[25] = Tmax in Dunkin-Hartley guinea pig at 30 mg/kg, po; format: ADME, organism-based, Cavia porcellus; details: in vivo
[26] = Cmax in Dunkin-Hartley guinea pig at 100 mg/kg, po; format: ADME, organism-based, Cavia porcellus; set-up: dose 100 mg/kg, route oral; details: in vivo
[27] = AUC (0 to 24 hrs) in Dunkin-Hartley guinea pig at 100 mg/kg, po; format: ADME, organism-based, Cavia porcellus; set-up: time < 24 hr, dose 100 mg/kg, route oral; details: in vivo
[28] = Tmax in Dunkin-Hartley guinea pig at 100 mg/kg, po; format: ADME, organism-based, Cavia porcellus; details: in vivo
[29] = Cmax in Beagle dog at 10 mg/kg, po; format: ADME, organism-based, Canis lupus familiaris; set-up: dose 10 mg/kg, route oral; details: in vivo
[30] = AUC (0 to 24 hrs) in Beagle dog at 10 mg/kg, po; format: ADME, organism-based, Canis lupus familiaris; set-up: time < 24 hr, dose 10 mg/kg, route oral; details: in vivo
[31] = Tmax in Beagle dog at 10 mg/kg, po; format: ADME, organism-based, Canis lupus familiaris; details: in vivo
[32] = Cmax in cynomolgus monkey at 10 mg/kg, po; format: ADME, organism-based, Macaca fascicularis; set-up: dose 10 mg/kg, route oral; details: in vivo
[33] = AUC (0 to 24 hrs) in cynomolgus monkey at 10 mg/kg, po; format: ADME, organism-based, Macaca fascicularis; set-up: dose 10 mg/kg, time < 24 hr, route oral; details: in vivo
[34] = Tmax in cynomolgus monkey at 10 mg/kg, po; format: ADME, organism-based, Macaca fascicularis; details: in vivo
[35] = Oral bioavailability in cynomolgus monkey at 10 mg/kg; format: ADME, organism-based, Macaca fascicularis; details: in vivo
Cynomolgus monkey = assay: Apparent volume of distribution in cynomolgus monkey at 10 mg/kg, po; format: ADME, organism-based, Macaca fascicularis; details: in vivo
[36] = Drug level in Sprague-Dawley rat brain; format: ADME, tissue-based; details: in vivo
[37] = Drug level in Sprague-Dawley rat plasma; format: ADME, cell-free
[38] = Plasma concentration in Dunkin-Hartley guinea pig model of LPS-induced thermal hyperalgesia at 3 mg/kg, po pretreated for 4 hrs followed by LPS challenge measured at […] post dose; format: ADME, organism-based, Cavia porcellus
[39] = Plasma concentration in Dunkin-Hartley guinea pig model of LPS-induced thermal hyperalgesia at 10 mg/kg, po pretreated for 4 hrs followed by LPS challenge measured at […] post dose; format: ADME, organism-based, Cavia porcellus
[40] = Plasma concentration in Dunkin-Hartley guinea pig model of LPS-induced thermal hyperalgesia at 30 mg/kg, po pretreated for 4 hrs followed by LPS challenge measured at […] post dose; format: ADME, organism-based, Cavia porcellus
Rattus norvegicus [41] = assay: Apparent volume of distribution in Sprague-Dawley rat at 1 mg/kg, iv; details: in vivo

- solubility [1]: Soluble
- Kp [2]: 0.22
- Papp [3]: 0.13 ×10⁻⁶ cm/s
- solubility [4]: 25000 µg/mL (≈ 48200 µM)
- solubility [5]: 0.9 µg/mL (≈ 1.73 µM)
- solubility [6]: 0.6 µg/mL (≈ 1.16 µM)
- solubility [7]: Insoluble
- solubility [8]: 0.2 µg/mL (≈ 0.385 µM)
- Cmax (Rattus norvegicus [9]): 546 ng/mL
- AUC (Rattus norvegicus [10]): 6505 ng·h/mL
- Tmax (Rattus norvegicus [11]): 2 h
- bioavailability [12]: 100%
- Cmax [13]: 2530 ng/mL
- AUC(0-t) at 24 h [14]: 32400 ng·h/mL
- Tmax [15]: 2 h
- bioavailability [16]: 100%
- Cmax [17]: 5550 ng/mL
- AUC(0-t) at 24 h [18]: 108000 ng·h/mL
- Tmax [19]: 8 h
- Cmax [20]: 426 ng/mL
- AUC(0-t) at 24 h [21]: 5080 ng·h/mL
- Tmax [22]: 4 h
- Cmax [23]: 742 ng/mL
- AUC(0-t) at 24 h [24]: 11600 ng·h/mL
- Tmax [25]: 4 h
- Cmax [26]: 736 ng/mL
- AUC(0-t) at 24 h [27]: 11700 ng·h/mL
- Tmax [28]: 2 h
- Cmax [29]: 1090 ng/mL
- AUC(0-t) at 24 h [30]: 22000 ng·h/mL
- Tmax [31]: 12 h
- Cmax [32]: 908 ng/mL
- AUC(0-t) at 24 h [33]: 16700 ng·h/mL
- Tmax [34]: 6 h
- bioavailability [35]: 78%
- Vz (Cynomolgus monkey): 1.67 L/kg
- Drug uptake [36]: 58.9 ng/mL
- Cp [37]: 268.9 ng/mL
- concentration at […] [38]: 43 ng/mL
- concentration at […] [39]: 116 ng/mL
- concentration at […] [40]: 371 nM
- Vz (Rattus norvegicus [41]): 3.59 L/kg
Compound: CC1(C)Cc2c(c(C(=O)Nc3ccc(C(F)(F)F)cc3)cc3nc(Nc4c(F)cccc4Cl)[nH]c23)O1

- solubility [1]: Soluble
Compound: CC1(C)Cc2c(c(C(=O)NCC(F)(F)C(F)(F)F)cc3nc(Nc4c(Cl)cccc4Cl)[nH]c23)O1

- solubility [1]: Soluble
Compound: CC1(C)Cc2c(c(C(=O)Nc3ccc(F)cc3)cc3nc(Nc4c(Cl)cccc4Cl)[nH]c23)O1

- solubility [1]: Soluble
Compound: CC1(C)Cc2c(c(C(=O)Nc3ccc(F)c(C(F)(F)F)c3)cc3nc(Nc4c(Cl)cncc4Cl)[nH]c23)O1

- solubility [1]: Soluble
Compound: CC1(C)Cc2c(c(C(=O)NCC3CC3)cc3nc(Nc4c(Cl)cncc4Cl)[nH]c23)O1

- solubility [1]: Soluble
Compound: CC1(C)Cc2c(c(C(=O)Nc3ccccc3)cc3nc(Nc4c(Cl)cccc4Cl)[nH]c23)O1

- solubility [1]: Soluble
Compound: CC1(C)Cc2c(c(C(=O)Nc3ccc(OC(F)F)nc3)cc3nc(Nc4c(F)cccc4Cl)[nH]c23)O1

- solubility [1]: Soluble
Compound: CC1(C)Cc2c(c(C(=O)NC3CCC(F)(F)CC3)cc3nc(Nc4c(Cl)cccc4Cl)[nH]c23)O1

- solubility [1]: Soluble
Compound: COc1ccc(NC(=O)c2cc3nc(Nc4c(Cl)cccc4Cl)[nH]c3c3c2OC(C)(C)C3)cn1

- solubility [1]: Soluble
Compound: CC1(C)Cc2c(c(C(=O)NCC3CCCCC3)cc3nc(Nc4c(Cl)cncc4Cl)[nH]c23)O1

- solubility [1]: Insoluble
Compound: Cc1cc2c(o1)c(C(=O)Nc1ccc(C(F)(F)F)cc1)cc1nc(Nc3c(Cl)cncc3Cl)[nH]c12

- solubility [1]: Soluble
Compound: CC1(C)Cc2c(c(C(=O)NCC3CC3)cc3nc(Nc4c(Cl)cccc4Cl)[nH]c23)O1

- solubility [1]: Soluble
- solubility [4]: 20000 µg/mL (≈ 37400 µM)
- solubility [5]: 0.3 µg/mL (≈ 0.56 µM)
- solubility [6]: 0.6 µg/mL (≈ 1.12 µM)
- solubility [7]: Insoluble
- solubility [8]: 0.1 µg/mL (≈ 0.187 µM)
Compound: CC1(C)Cc2c(c(C(=O)Nc3ccc(C(F)(F)F)cc3)cc3nc(Nc4c(Cl)cccc4Cl)[nH]c23)O1

- solubility [1]: Soluble
Compound: CC1(C)Cc2c(c(C(=O)Nc3ccc(Cl)cn3)cc3nc(Nc4c(F)cccc4Cl)[nH]c23)O1

- solubility [1]: Soluble
Compound: CC1(C)Cc2c(c(C(=O)NCC3CCCC3)cc3nc(Nc4c(Cl)cccc4Cl)[nH]c23)O1

- solubility [1]: Soluble
Compound: CC1(C)Cc2c(c(C(=O)Nc3ccc(F)cc3)cc3nc(Nc4c(F)cccc4Cl)[nH]c23)O1

- solubility [1]: Soluble
Compound: CC1(C)Cc2c(c(C(=O)Nc3cccc(C4CC4)c3)cc3nc(Nc4c(F)cccc4Cl)[nH]c23)O1

- solubility [1]: Insoluble
Compound: Cc1cc2c(o1)c(C(=O)Nc1ccc(C(F)(F)F)cc1)cc1nc(Nc3c(Cl)cccc3Cl)[nH]c12

- solubility [1]: Soluble
Compound: CC1(C)Cc2c(c(C(=O)Nc3ccc(C(F)(F)F)cc3F)cc3nc(Nc4c(Cl)cncc4Cl)[nH]c23)O1

- solubility [1]: Insoluble
Compound: Cc1cc2c(o1)c(C(=O)Nc1cccc(C(F)(F)F)c1)cc1nc(Nc3c(Cl)cccc3Cl)[nH]c12

- solubility [1]: Soluble
Compound: Cc1ccc(NC(=O)c2cc3nc(Nc4c(Cl)cccc4Cl)[nH]c3c3c2OC(C)(C)C3)c(C)n1

- solubility [1]: Soluble
Compound: CC1(C)Cc2c(c(C(=O)Nc3ccc(C4CC4)cc3)cc3nc(Nc4c(F)cccc4Cl)[nH]c23)O1

- solubility [1]: Soluble
Compound: CC1(C)Cc2c(c(C(=O)NCC(F)(F)F)cc3nc(Nc4c(Cl)cccc4Cl)[nH]c23)O1

- solubility [1]: Soluble
Compound: CC1(C)Cc2c(c(C(=O)Nc3ccc(C(F)(F)F)nc3)cc3nc(Nc4c(Cl)cccc4Cl)[nH]c23)O1

- solubility [1]: Soluble
Compound: CC1(C)Cc2c(c(C(=O)NC3CCCCC3)cc3nc(Nc4c(Cl)cncc4Cl)[nH]c23)O1

- solubility [1]: Soluble
Compound: CC1(C)Cc2c(c(C(=O)Nc3ccc(C(F)(F)F)cc3)cc3nc(Nc4c(Cl)cncc4Cl)[nH]c23)O1
